Measurements: ChEMBL document CHEMBL5247653, “Discovery of Clinical Candidate ACT-777991, a Potent CXCR3 Antagonist for Antigen-Driven and Inflammatory Pathologies” (J Med Chem, 2023)
In brackets after ≈: the same amount, converted by molar mass. Activity calls are given as the source filed them. No cut-off for these calls is given here.

Legend:
[1] = Metabolic stability in dog hepatocyte assessed as M3 metabolite formation at 1 uM and measured upto 15 mins in presence of NADPH regenerating system by LC-MS/MS analysis; format: ADME, cell-based, Canis lupus familiaris; settings: hepatocytes, 0.25 h
[2] = biological target: Cytochrome P450 2D6 (Homo sapiens, UniProt P10635); experiment: Competitive inhibition of CYP2D6 (unknown origin); format: ADME
Sequence of Cytochrome P450 2D6 (P10635 whole entry): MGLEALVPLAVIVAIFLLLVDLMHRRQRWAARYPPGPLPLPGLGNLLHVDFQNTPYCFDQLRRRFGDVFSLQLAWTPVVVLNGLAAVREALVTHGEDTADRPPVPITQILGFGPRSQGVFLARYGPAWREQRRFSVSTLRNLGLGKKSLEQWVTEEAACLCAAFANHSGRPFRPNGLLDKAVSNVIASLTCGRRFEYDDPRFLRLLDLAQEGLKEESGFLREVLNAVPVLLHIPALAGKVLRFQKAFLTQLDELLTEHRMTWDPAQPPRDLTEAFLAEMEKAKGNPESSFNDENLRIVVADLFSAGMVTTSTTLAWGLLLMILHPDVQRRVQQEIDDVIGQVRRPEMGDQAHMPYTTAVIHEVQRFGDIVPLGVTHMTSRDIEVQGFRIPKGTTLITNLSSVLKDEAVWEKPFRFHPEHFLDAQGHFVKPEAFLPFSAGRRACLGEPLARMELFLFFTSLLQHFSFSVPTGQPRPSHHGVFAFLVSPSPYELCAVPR

[3] = Metabolic stability in dog liver microsomes assessed as intrinsic clearance at 1 uM and measured upto 15 mins in presence of NADPH regenerating system by LC-MS/MS analysis; format: ADME, Canis lupus familiaris, Microsome; settings: read-out: CLH
[4] = biological target: T1, C-X-C chemokine receptor type 3 (Homo sapiens, UniProt P49682); experiment: Antagonist activity at human CXCR3 expressed in CHO-K1 cells assessed as reduction in CXCL11 induced calcium flux by FLIPR method; format: cell-based
T1 sequence (P49682 whole entry): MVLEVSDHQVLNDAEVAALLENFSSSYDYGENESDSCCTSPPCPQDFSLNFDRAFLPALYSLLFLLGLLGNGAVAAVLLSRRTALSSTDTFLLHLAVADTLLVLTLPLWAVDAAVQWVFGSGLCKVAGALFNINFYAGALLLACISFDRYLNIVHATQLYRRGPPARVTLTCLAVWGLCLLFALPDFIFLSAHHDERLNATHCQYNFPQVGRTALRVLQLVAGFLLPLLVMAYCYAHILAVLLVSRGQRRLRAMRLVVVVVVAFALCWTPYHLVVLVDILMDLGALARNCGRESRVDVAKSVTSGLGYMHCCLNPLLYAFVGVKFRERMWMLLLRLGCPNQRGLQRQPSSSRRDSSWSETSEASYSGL

[5] = Lipophilicity, log D of compound; format: physicochemical; settings: octanol/water
[6] = Half life in Cynomolgus monkey at 1.0 mg/kg,iv or 1.25 mg/kg, po; format: ADME, organism-based, Macaca fascicularis; settings: in vivo
[7] = Metabolic stability in dog hepatocytes assessed as intrinsic clearance per 10^6 cells at 1 uM by LC-MS/MS analysis; format: ADME, cell-based, Canis lupus familiaris, Hepatocyte
[8] = test system: Mus musculus; experiment: Antiinflammatory activity against LPS-induced DBA/1 mouse model assessed as reduction in CXCR3+ CD8+ T cells infiltration into BAL at 0.02 microg/g, po preincubated for 3 days followed by LPS stimulation for 30 mins and measured after 3 days by flow cytometry; format: functional, T-cell; design: scale not given: the % may be the effect or the level left; settings: dose 0.02 µg/g, time 6 day
[9] = biological target: T2, C-X-C chemokine receptor type 3 (Mus musculus) (UniProt O88410); experiment: In vivo antagonist activity at CXCR3 in LPS-induced DBA/1 mouse model assessed as reduction in mouse CXCL10-mediated chemotaxis in CD8+ T cells at 0.06 microg/g, po bid preincubated for 3 days followed by LPS stimulation for 30 mins and measured after 3 days by flow cytometry; format: functional, organism-based; design: scale not given: the % may be the effect or the level left; settings: T-cell, dose 0.06 µg/g, time 6.0 day
T2 sequence (whole entry): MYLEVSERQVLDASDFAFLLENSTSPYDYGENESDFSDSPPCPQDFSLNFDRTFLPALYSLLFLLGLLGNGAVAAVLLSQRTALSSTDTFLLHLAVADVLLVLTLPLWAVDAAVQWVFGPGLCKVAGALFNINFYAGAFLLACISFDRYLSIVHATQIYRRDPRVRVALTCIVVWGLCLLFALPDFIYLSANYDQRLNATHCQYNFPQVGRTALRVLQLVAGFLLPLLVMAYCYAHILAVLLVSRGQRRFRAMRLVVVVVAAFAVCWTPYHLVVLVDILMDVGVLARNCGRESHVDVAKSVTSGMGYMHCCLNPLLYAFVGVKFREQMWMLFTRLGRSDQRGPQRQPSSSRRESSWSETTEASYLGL

[10] = biological target: Cytochrome P450 3A4 (Homo sapiens, UniProt P08684); experiment: Competitive inhibition of CYP3A4 (unknown origin); format: ADME
Sequence of Cytochrome P450 3A4 (P08684 whole entry): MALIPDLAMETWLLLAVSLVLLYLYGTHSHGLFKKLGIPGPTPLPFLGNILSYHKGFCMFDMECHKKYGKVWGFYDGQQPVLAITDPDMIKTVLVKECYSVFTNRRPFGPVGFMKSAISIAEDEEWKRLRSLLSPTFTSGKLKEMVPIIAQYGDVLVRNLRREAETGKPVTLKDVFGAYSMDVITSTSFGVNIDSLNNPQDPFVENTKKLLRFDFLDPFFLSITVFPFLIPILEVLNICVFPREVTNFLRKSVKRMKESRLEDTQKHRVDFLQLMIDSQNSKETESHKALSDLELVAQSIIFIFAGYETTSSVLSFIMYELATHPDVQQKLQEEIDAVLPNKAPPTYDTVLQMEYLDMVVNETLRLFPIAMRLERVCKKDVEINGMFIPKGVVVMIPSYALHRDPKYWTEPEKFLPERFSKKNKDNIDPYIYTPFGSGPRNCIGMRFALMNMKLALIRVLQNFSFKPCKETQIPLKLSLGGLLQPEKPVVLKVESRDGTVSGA

[11] = Tmax in Wistar rat at 3 mg/kg,iv or 3 mg/kg, po; format: ADME, organism-based; settings: in vivo
[12] = Metabolic stability in rat hepatocyte assessed as M4 metabolite formation at 1 uM and measured upto 15 mins in presence of NADPH regenerating system by LC-MS/MS analysis; format: ADME, cell-based; settings: hepatocytes, 0.25 h
[13] = biological target: T1, C-X-C chemokine receptor type 3; experiment: Antagonist activity at CXCR3 (unknown origin) in human T cells in venous blood assessed as receptor internalization incubated for 30 mins in presence of CXCL10 by flow cytometric analysis; format: cell-based, T cell
[14] = biological target: Solute carrier organic anion transporter family member 1B3 (Homo sapiens, UniProt Q9NPD5); experiment: Inhibition of human OATP1B3; format: ADME
Sequence of Solute carrier organic anion transporter family member 1B3 (Q9NPD5 whole entry): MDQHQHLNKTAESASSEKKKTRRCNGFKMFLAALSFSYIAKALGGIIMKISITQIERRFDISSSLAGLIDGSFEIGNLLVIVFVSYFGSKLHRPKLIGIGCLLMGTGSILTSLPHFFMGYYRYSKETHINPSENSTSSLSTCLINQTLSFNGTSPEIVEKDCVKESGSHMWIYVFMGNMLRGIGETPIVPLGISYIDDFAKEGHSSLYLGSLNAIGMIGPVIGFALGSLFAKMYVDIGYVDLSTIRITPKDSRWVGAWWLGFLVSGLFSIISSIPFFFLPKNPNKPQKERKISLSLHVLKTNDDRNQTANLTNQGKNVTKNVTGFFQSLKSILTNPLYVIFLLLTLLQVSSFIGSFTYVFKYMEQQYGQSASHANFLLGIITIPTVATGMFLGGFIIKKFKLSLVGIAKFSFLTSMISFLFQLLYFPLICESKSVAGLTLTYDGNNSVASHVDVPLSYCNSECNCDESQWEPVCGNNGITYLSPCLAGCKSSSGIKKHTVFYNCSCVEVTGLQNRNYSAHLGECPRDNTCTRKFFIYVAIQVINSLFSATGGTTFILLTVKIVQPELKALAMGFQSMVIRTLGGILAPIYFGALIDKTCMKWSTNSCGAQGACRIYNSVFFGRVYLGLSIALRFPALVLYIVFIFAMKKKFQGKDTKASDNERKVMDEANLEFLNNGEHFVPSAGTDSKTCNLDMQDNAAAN

[15] = Genotoxicity in Salmonella typhimurium TA98 at 5000 ug; format: toxicity; settings: salmonella enterica subsp. enterica serovar typhimurium; dose 5000 µg
[16] = Protein binding in rat plasma assessed as fraction unbound at 1 uM incubated for 6 hrs by rapid equilibrium dialysis based LC-MS/MS analysis; format: ADME, cell-free
[17] = AUC (0 to last) in Cynomolgus monkey at 1.0 mg/kg,iv or 1.25 mg/kg, po; format: ADME, organism-based, Macaca fascicularis; design: dose 1 mg/kg, route iv; settings: in vivo
[18] = biological target: Chemerin-like receptor 1 (Homo sapiens) (UniProt Q99788); experiment: Binding affinity to ChemR23 (unknown origin) at 10 uM by radioligand binding assay
Sequence of Chemerin-like receptor 1 (Homo sapiens) (Q99788 whole entry): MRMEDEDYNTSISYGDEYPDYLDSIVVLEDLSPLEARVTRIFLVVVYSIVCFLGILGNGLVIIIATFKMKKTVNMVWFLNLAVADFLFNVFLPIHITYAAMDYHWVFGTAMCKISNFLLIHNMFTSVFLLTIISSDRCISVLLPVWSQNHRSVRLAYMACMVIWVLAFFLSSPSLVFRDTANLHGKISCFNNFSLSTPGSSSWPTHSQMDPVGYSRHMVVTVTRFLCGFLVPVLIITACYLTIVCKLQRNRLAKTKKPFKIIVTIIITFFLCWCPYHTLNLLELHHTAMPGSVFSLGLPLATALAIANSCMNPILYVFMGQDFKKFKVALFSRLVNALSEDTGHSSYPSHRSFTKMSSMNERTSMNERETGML

[19] = biological target: C-X-C chemokine receptor type 6 (Homo sapiens) (UniProt O00574); experiment: Binding affinity to CXCR6 (unknown origin) at 10 uM by radioligand binding assay
[20] = Metabolic stability in dog hepatocyte assessed as M2 metabolite formation at 1 uM and measured upto 15 mins in presence of NADPH regenerating system by LC-MS/MS analysis; format: ADME, cell-based, Canis lupus familiaris; settings: hepatocytes, 0.25 h
[21] = Unbound clearance in Beagle dog plasma at 1 mg/kg, iv; format: ADME, organism-based, Canis lupus familiaris; settings: in vivo
[22] = biological target: T3, C-X-C chemokine receptor type 3 (Mus musculus, UniProt O88410); experiment: Antagonist activity at CXCR3 in DBA/1 mouse whole blood assessed as receptor internalization incubated for 30 mins in presence of CXCL10 by flow cytometric analysis; format: tissue-based
T3 sequence (O88410 whole entry): T2 sequence (whole entry)

[23] = Metabolic stability in human hepatocyte assessed as M3 metabolite formation at 1 uM and measured upto 15 mins in presence of NADPH regenerating system by LC-MS/MS analysis; format: ADME, cell-based; settings: hepatocytes, 0.25 h
[24] = Drug excretion in urine of Wistar rat assessed as unchanged drug at 1 mg/kg, iv; format: ADME, organism-based; settings: read-out: Drug excretion
[25] = biological target: C-X-C chemokine receptor type 3 (Rattus norvegicus, UniProt Q9JII9); experiment: Antagonist activity at CXCR3 in Wistar rat whole blood assessed as receptor internalization incubated for 30 mins in presence of CXCL10 by flow cytometric analysis; format: tissue-based
Sequence of C-X-C chemokine receptor type 3 (Rattus norvegicus, UniProt Q9JII9) (Q9JII9 whole entry): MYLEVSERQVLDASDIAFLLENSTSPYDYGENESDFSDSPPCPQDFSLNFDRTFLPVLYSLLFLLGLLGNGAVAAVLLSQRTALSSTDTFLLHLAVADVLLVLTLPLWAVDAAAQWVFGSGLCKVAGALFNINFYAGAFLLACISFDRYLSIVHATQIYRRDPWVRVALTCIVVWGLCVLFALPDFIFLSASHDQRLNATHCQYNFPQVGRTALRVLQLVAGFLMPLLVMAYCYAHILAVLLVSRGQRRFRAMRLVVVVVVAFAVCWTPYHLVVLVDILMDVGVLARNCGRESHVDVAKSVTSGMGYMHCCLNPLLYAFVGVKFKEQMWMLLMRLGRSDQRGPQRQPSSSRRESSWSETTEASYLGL

[26] = Metabolic stability in human liver microsomes assessed as M3 metabolite formation at 1 uM and measured upto 15 mins in presence of NADPH regenerating system by LC-MS/MS analysis; format: ADME, Microsome; settings: 0.25 h
[27] = Half life in Wistar rat at 3 mg/kg,iv or 3mg/kg, po; format: ADME, organism-based; settings: in vivo
[28] = Total clearance in Wistar rat plasma at 0.5 mg/kg, iv; format: ADME, organism-based
[29] = Oral bioavailability in Wistar rat at 3 mg/kg; format: ADME, organism-based; settings: in vivo
[30] = biological target: Voltage-gated inwardly rectifying potassium channel KCNH2 (Homo sapiens, UniProt Q12809); experiment: (§1) Inhibition of human ERG K+ currents by GLP assay; format: toxicity
Sequence of Voltage-gated inwardly rectifying potassium channel KCNH2 (Q12809 whole entry): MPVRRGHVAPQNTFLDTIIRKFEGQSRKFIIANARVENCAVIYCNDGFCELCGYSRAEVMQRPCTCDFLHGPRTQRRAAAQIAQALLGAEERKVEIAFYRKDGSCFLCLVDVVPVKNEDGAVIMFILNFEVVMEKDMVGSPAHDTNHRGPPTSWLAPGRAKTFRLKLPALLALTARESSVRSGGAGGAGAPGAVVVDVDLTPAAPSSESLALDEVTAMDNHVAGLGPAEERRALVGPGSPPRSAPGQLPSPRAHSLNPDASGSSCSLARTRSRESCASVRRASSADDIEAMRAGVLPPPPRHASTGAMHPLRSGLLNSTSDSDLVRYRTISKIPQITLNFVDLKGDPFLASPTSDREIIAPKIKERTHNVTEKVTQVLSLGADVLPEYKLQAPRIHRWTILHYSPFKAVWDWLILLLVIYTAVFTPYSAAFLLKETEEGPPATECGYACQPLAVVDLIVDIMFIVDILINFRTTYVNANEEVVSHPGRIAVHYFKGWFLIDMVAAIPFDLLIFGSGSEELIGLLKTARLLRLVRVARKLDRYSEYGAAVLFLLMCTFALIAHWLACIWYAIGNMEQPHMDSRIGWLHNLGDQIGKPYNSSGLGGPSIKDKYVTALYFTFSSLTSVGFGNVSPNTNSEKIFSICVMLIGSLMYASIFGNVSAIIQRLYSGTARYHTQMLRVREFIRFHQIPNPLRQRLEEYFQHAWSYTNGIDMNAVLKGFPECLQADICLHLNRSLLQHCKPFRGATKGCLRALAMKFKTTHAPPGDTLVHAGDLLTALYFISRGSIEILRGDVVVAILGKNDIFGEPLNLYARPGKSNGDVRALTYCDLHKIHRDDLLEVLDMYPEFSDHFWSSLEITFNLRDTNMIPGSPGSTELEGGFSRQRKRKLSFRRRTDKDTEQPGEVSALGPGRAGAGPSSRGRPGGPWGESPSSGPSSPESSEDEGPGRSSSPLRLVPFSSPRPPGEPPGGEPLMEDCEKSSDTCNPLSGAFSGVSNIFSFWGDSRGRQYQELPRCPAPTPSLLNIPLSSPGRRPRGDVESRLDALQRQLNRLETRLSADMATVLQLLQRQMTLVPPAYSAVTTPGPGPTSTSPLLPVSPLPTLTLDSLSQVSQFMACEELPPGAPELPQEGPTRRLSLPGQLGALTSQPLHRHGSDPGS

[31] = biological target: hERG (KCNH2) (Homo sapiens, UniProt Q12809); experiment: as §1; format: toxicity; settings: human
Sequence of hERG (KCNH2) (Q12809 whole entry): as above

## Cc1ncn(CC(=O)N2CCN(c3sc(C(F)(F)F)nc3-c3cnc(C(F)(F)F)nc3)C[C@H]2CCO)n1
[1]
  Stability: Unstable
[2]
  IC50: > 50000 nM
[3]
  microsomal CLint at 1 µM: < 10 µL/min/mg
[4]
  IC50: 5.3 nM
[5]
  logD: 2.3
[6]
  half-life: 4 h
[7]
  CLH: < 2 µL/min/mg
[8]
  Activity: 70%
[9]
  Activity: 55%
[10]
  IC50: > 50000 nM
[11]
  Tmax: 0.5 h
[12]
  Stability: Unstable
[13]
  IC50: 56.3 nM
[14]
  inhibition (INH): Not Active
[15]
  Activity: Non-Toxic
[16]
  fraction unbound at 6 h, 1 µM: 0.09
[17]
  AUC(0-t): 3610 ng·h/mL
[18]
  Activity: inactive
[19]
  Activity: inactive
[20]
  Stability: Unstable
[21]
  CL free: 15 mL/min/kg
[22]
  IC50: 161 nM
[23]
  Stability: Unstable
[24]
  dose excreted: 4.4%
[25]
  IC50: 291 nM
[26]
  Stability: Unstable
[27]
  half-life: 5.5 h
[28]
  clearance: 14 mL/min/kg
[29]
  bioavailability: 80%
[30]
  IC50: 15400 nM
[31]
  IC20: 3 µg/mL (≈ 5.45 µM)
